Laboratory results from article PMC11148373, “Cubeb (Piper cubeba L.): nutritional value, phytochemical profiling and dermacosmeceutical properties” (Frontiers in Nutrition, 2024).

Molecular target: T1, elastase from porcine pancreas (Sus scrofa, UniProt P00772)
T1 construct: gene CELA1; commercial native porcine pancreatic elastase (Sigma Aldrich)
Test: N-Succinyl-Ala-Ala-Ala-p-nitroanilide hydrolysis, absorbance at […] nm
Type: biochemical
Details: read-out: IC50 (μg/mL) / Elastase (converted)

T1 sequence (P00772 27-266): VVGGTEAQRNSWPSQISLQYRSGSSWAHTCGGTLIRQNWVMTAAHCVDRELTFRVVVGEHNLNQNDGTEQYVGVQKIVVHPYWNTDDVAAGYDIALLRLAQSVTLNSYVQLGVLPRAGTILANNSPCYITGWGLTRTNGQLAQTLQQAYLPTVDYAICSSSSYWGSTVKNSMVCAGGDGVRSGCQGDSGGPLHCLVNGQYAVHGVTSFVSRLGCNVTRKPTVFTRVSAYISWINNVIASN

O=C(O[C@@H]1Cc2c(O)cc(O)cc2O[C@@H]1c1cc(O)c(O)c(O)c1)c1cc(O)c(O)c(O)c1 [Epigallocatechin gallate]
IC50: 505 µM
